Source: PubChem BioAssay (NCI)
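All cell lines were grown in 96-well plates and treated with compound for 48 hours. Abbreviation: GI50, concentration required for 50% inhibition of growth. TGI: total growth inhibition.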

Key:
Experiment in all cases: inhibition of tumour cell growth, NCI panel, 48 h
786-0 renal = test system: 786-0 renal
A498 renal = test system: A498 renal
A549 NSCLC = test system: A549 NSCLC
ACHN renal = test system: ACHN renal
BT-549 breast = test system: BT-549 breast
CAKI-1 renal = test system: CAKI-1 renal
CCRF-CEM leukemia = test system: CCRF-CEM leukemia
COLO 205 colon = test system: COLO 205 colon
DU-145 prostate = test system: DU-145 prostate
HCC-2998 colon = test system: HCC-2998 colon
HCT-116 colon = test system: HCT-116 colon
HCT-15 colon = test system: HCT-15 colon
HL-60(TB) leukemia = test system: HL-60(TB) leukemia
HOP-62 NSCLC = test system: HOP-62 NSCLC
HS 578T breast = test system: HS 578T breast
HT29 colon = test system: HT29 colon
IGROV1 ovarian = test system: IGROV1 ovarian
K-562 leukemia = test system: K-562 leukemia
KM12 colon = test system: KM12 colon
LOX IMVI melanoma = test system: LOX IMVI melanoma
M14 melanoma = test system: M14 melanoma
MALME-3M melanoma = test system: MALME-3M melanoma
MCF7 breast = test system: MCF7 breast
MDA-MB-231 breast = test system: MDA-MB-231 breast
MDA-MB-435 = test system: MDA-MB-435
MOLT-4 leukemia = test system: MOLT-4 leukemia
NCI-H226 lung = test system: NCI-H226 lung
NCI-H23 lung = test system: NCI-H23 lung
NCI-H460 lung = test system: NCI-H460 lung
NCI-H522 lung = test system: NCI-H522 lung
NCI/ADR-RES ovarian = test system: NCI/ADR-RES ovarian
OVCAR-3 ovarian = test system: OVCAR-3 ovarian
OVCAR-4 ovarian = test system: OVCAR-4 ovarian
OVCAR-8 ovarian = test system: OVCAR-8 ovarian
PC-3 prostate = test system: PC-3 prostate
RPMI-8226 leukemia = test system: RPMI-8226 leukemia
RXF 393 renal = test system: RXF 393 renal
SF-268 CNS = test system: SF-268 CNS
SF-295 CNS = test system: SF-295 CNS
SF-539 CNS = test system: SF-539 CNS
SK-MEL-2 melanoma = test system: SK-MEL-2 melanoma
SK-MEL-28 melanoma = test system: SK-MEL-28 melanoma
SK-MEL-5 melanoma = test system: SK-MEL-5 melanoma
SK-OV-3 ovarian = test system: SK-OV-3 ovarian
SN12C renal = test system: SN12C renal
SNB-19 CNS = test system: SNB-19 CNS
SNB-75 CNS = test system: SNB-75 CNS
SR leukemia = test system: SR leukemia
SW-620 colon = test system: SW-620 colon
T-47D breast = test system: T-47D breast
TK-10 renal = test system: TK-10 renal
U251 CNS = test system: U251 CNS
UACC-257 melanoma = test system: UACC-257 melanoma
UACC-62 melanoma = test system: UACC-62 melanoma
UO-31 renal = test system: UO-31 renal

CC(=O)Nc1ccc2c(C3=C(c4cn(C)c5ccccc45)C(=O)NC3=O)cn(C)c2c1
GI50 (786-0 renal): 2.09 µM
TGI (786-0 renal): > 25 µM
GI50 (A498 renal): 0.386 µM
TGI (A498 renal): 12.8 µM
GI50 (A549 NSCLC): 1.05 µM
TGI (A549 NSCLC): > 25 µM
GI50 (ACHN renal): 1.42 µM
TGI (ACHN renal): > 25 µM
GI50 (BT-549 breast): > 25 µM
TGI (BT-549 breast): > 25 µM
GI50 (CAKI-1 renal): 2.08 µM
TGI (CAKI-1 renal): > 25 µM
GI50 (CCRF-CEM leukemia): 0.0773 µM
TGI (CCRF-CEM leukemia): > 25 µM
GI50 (COLO 205 colon): 0.691 µM
TGI (COLO 205 colon): 1.72 µM
GI50 (DU-145 prostate): 1.01 µM
TGI (DU-145 prostate): > 24.2 µM
GI50 (HCC-2998 colon): 0.89 µM
TGI (HCC-2998 colon): > 25 µM
GI50 (HCT-116 colon): 0.697 µM
TGI (HCT-116 colon): > 16.6 µM
GI50 (HCT-15 colon): 1.24 µM
TGI (HCT-15 colon): > 25 µM
GI50 (HL-60(TB) leukemia): 0.921 µM
TGI (HL-60(TB) leukemia): > 25 µM
GI50 (HOP-62 NSCLC): 1.15 µM
TGI (HOP-62 NSCLC): > 25 µM
GI50 (HS 578T breast): 0.443 µM
TGI (HS 578T breast): > 25 µM
GI50 (HT29 colon): 0.833 µM
TGI (HT29 colon): > 25 µM
GI50 (IGROV1 ovarian): 1.47 µM
TGI (IGROV1 ovarian): > 25 µM
GI50 (K-562 leukemia): 0.762 µM
TGI (K-562 leukemia): > 25 µM
GI50 (KM12 colon): 0.749 µM
TGI (KM12 colon): > 15 µM
GI50 (LOX IMVI melanoma): 0.634 µM
TGI (LOX IMVI melanoma): > 25 µM
GI50 (M14 melanoma): 0.945 µM
TGI (M14 melanoma): > 25 µM
GI50 (MALME-3M melanoma): > 25 µM
TGI (MALME-3M melanoma): > 25 µM
GI50 (MCF7 breast): 0.294 µM
TGI (MCF7 breast): > 25 µM
GI50 (MDA-MB-231 breast): 0.821 µM
TGI (MDA-MB-231 breast): > 25 µM
GI50 (MDA-MB-435): 0.118 µM
TGI (MDA-MB-435): 0.842 µM
GI50 (MOLT-4 leukemia): 1.06 µM
TGI (MOLT-4 leukemia): > 25 µM
GI50 (NCI-H226 lung): > 6.26 µM
TGI (NCI-H226 lung): > 25 µM
GI50 (NCI-H23 lung): 1.16 µM
TGI (NCI-H23 lung): > 25 µM
GI50 (NCI-H460 lung): 0.881 µM
TGI (NCI-H460 lung): > 25 µM
GI50 (NCI-H522 lung): 0.218 µM
TGI (NCI-H522 lung): 1.31 µM
GI50 (NCI/ADR-RES ovarian): 13.9 µM
TGI (NCI/ADR-RES ovarian): > 25 µM
GI50 (OVCAR-3 ovarian): 0.737 µM
TGI (OVCAR-3 ovarian): 3.1 µM
GI50 (OVCAR-4 ovarian): 1.28 µM
TGI (OVCAR-4 ovarian): > 25 µM
GI50 (OVCAR-8 ovarian): 0.9 µM
TGI (OVCAR-8 ovarian): > 25 µM
GI50 (PC-3 prostate): 0.802 µM
TGI (PC-3 prostate): > 25 µM
GI50 (RPMI-8226 leukemia): 1.11 µM
TGI (RPMI-8226 leukemia): > 25 µM
GI50 (RXF 393 renal): 0.512 µM
TGI (RXF 393 renal): > 7.02 µM
GI50 (SF-268 CNS): 1.36 µM
TGI (SF-268 CNS): > 25 µM
GI50 (SF-295 CNS): 0.552 µM
TGI (SF-295 CNS): > 5.63 µM
GI50 (SF-539 CNS): 0.376 µM
TGI (SF-539 CNS): 1.4 µM
GI50 (SK-MEL-2 melanoma): 5.69 µM
TGI (SK-MEL-2 melanoma): > 25 µM
GI50 (SK-MEL-28 melanoma): > 5.94 µM
TGI (SK-MEL-28 melanoma): > 25 µM
GI50 (SK-MEL-5 melanoma): 0.637 µM
TGI (SK-MEL-5 melanoma): 3.12 µM
GI50 (SK-OV-3 ovarian): 1.53 µM
TGI (SK-OV-3 ovarian): > 25 µM
GI50 (SN12C renal): 1.25 µM
TGI (SN12C renal): > 25 µM
GI50 (SNB-19 CNS): 5.13 µM
TGI (SNB-19 CNS): > 25 µM
GI50 (SNB-75 CNS): 0.215 µM
TGI (SNB-75 CNS): > 25 µM
GI50 (SR leukemia): 0.363 µM
TGI (SR leukemia): > 25 µM
GI50 (SW-620 colon): 0.892 µM
TGI (SW-620 colon): > 25 µM
GI50 (T-47D breast): > 25 µM
TGI (T-47D breast): > 25 µM
GI50 (TK-10 renal): > 25 µM
TGI (TK-10 renal): > 25 µM
GI50 (U251 CNS): 0.889 µM
TGI (U251 CNS): > 25 µM
GI50 (UACC-257 melanoma): > 14.9 µM
TGI (UACC-257 melanoma): > 25 µM
GI50 (UACC-62 melanoma): 1.3 µM
TGI (UACC-62 melanoma): > 25 µM
GI50 (UO-31 renal): > 9.45 µM
TGI (UO-31 renal): > 25 µM
